The results in this text go back to PubChem BioAssay (NCI).

Molecules are shown by their SMILES. Several values for one entry are separate records, joined by “and”; a condition that tells them apart may be missing. Equal values may be shown once.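 Protocol summary: plate cells (96-well), add compound at 5 concentrations, incubate 48 h, interpolate endpoints linearly. GI50: concentration for 50% inhibition of growth. TGI marks complete inhibition of growth.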

Test systems include A498 renal; HCT-116 colon; HL-60(TB) leukemia; HOP-62 NSCLC; HOP-92 NSCLC; HT29 colon; NCI-H23 lung; SK-MEL-2 melanoma; SK-MEL-28 melanoma; SK-OV-3 ovarian; SNB-75 CNS; U251 CNS; UACC-62 melanoma; UO-31 renal.
Assay in all cases: inhibition of tumour cell growth, NCI panel, 48 h

For `C[C@H]1SC(c2ccc(Cl)cc2Cl)N(NC(=O)c2ccncc2)C1=O` (stereo not given in full), the TGI in the test with A498 renal was 78.4 µM; in the test with HCT-116 colon it was 60.4 µM; in the test on HL-60(TB) leukemia, more than 100 µM; with HOP-62 NSCLC, 94.3 µM; with HOP-92 NSCLC, more than 100 µM; in the test with HT29 colon, more than 100 µM. Moreover, the TGI is more than 100 µM in the test with NCI-H23 lung; 58.3 µM in the test with SK-MEL-2 melanoma; more than 100 µM in the test with SK-MEL-28 melanoma; more than 100 µM with SK-OV-3 ovarian; more than 100 µM in the test on SNB-75 CNS; more than 100 µM in the test on U251 CNS. The TGI in the test with UACC-62 melanoma is more than 100 µM; in the test with UO-31 renal, 96.1 µM.

On to `CN(C)CCNC(=O)c1cccc2nc(-c3ccccc3)oc12`, for which the TGI in the test with A498 renal is more than 94.3 µM; in the test on HCT-116 colon, more than 100 µM; in the test with HL-60(TB) leukemia, 96.2 µM; with HOP-62 NSCLC, more than 100 µM; in the test on HOP-92 NSCLC, 59.4 µM; in the test with HT29 colon it was more than 100 µM. For the same molecule, the TGI with NCI-H23 lung, in the test with SK-MEL-2 melanoma, in the test with SK-MEL-28 melanoma, in the test on SK-OV-3 ovarian, in the test with SNB-75 CNS and in the test with U251 CNS was more than 100 µM in each case. The TGI is more than 100 µM with UACC-62 melanoma and 45.1 µM in the test with UO-31 renal.

Take `CCOC(=O)/C(O)=C1\C(=O)N(C)C(=O)C1c1cccc(OC)c1` (stereo not given): the TGI in the test on A498 renal, with HCT-116 colon, in the test on HL-60(TB) leukemia, in the test on HOP-62 NSCLC, with HOP-92 NSCLC and in the test on HT29 colon was more than 100 µM each time. Further, the TGI in the test on NCI-H23 lung, with SK-MEL-2 melanoma, with SK-MEL-28 melanoma, with SK-OV-3 ovarian, in the test on SNB-75 CNS and in the test with U251 CNS was more than 100 µM in each case. In addition, the TGI in the test with UACC-62 melanoma and in the test with UO-31 renal was more than 100 µM in each case.

As for `CC(=O)OCc1c(O)c2c(c(O)c1COC(C)=O)C(=O)C=CC2=O`, the TGI in the test on A498 renal is 34.7 µM; with HCT-116 colon, 25.6 µM; in the test on HL-60(TB) leukemia, 46.7 µM; in the test with HOP-62 NSCLC it was 37.4 µM; with HOP-92 NSCLC, 7.24 µM; in the test on HT29 colon, 31.6 µM. Further, the TGI is 29 µM with NCI-H23 lung; 8.84 µM with SK-MEL-2 melanoma; 22.8 µM in the test on SK-MEL-28 melanoma; 33.4 µM with SK-OV-3 ovarian; 33.2 µM in the test on SNB-75 CNS; 28.5 µM with U251 CNS. In addition, the TGI in the test on UACC-62 melanoma came to 19.3 µM; with UO-31 renal, 29 µM.

For `CCCSc1nc(-c2ccc(OC)cc2)c(C#N)c(=O)n1C1OC(COC(C)=O)C(OC(C)=O)C(OC(C)=O)C1OC(C)=O` (stereo not given), the GI50 in the test on A498 renal was 20.9 µM; with HCT-116 colon, more than 100 µM; with HOP-62 NSCLC, > 100 µM and 30.1 µM; in the test with HOP-92 NSCLC, > 100 µM and 28.2 µM; in the test on U251 CNS, > 100 µM and 17.9 µM; in the test with UO-31 renal, > 100 µM and 36.9 µM. For the same molecule, the TGI in the test on A498 renal is > 100 µM and 78.2 µM; with HCT-116 colon it was more than 100 µM; in the test on HL-60(TB) leukemia, more than 100 µM; in the test on HOP-62 NSCLC it was more than 100 µM; in the test on HOP-92 NSCLC it was > 100 µM and 93.7 µM; in the test on HT29 colon, more than 100 µM. For the same molecule, the TGI is more than 100 µM in the test with NCI-H23 lung; more than 100 µM in the test with SK-MEL-2 melanoma; more than 100 µM in the test on SK-MEL-28 melanoma; more than 100 µM with SK-OV-3 ovarian; more than 100 µM in the test with SNB-75 CNS; > 100 µM and 34.2 µM with U251 CNS. Moreover, the TGI in the test with UACC-62 melanoma and in the test on UO-31 renal was more than 100 µM each time.

For the molecule `O=c1cc(-c2cc(O)c(O)c(-c3c(O)cc4oc(-c5ccc(O)c(O)c5)cc(=O)c4c3O)c2)oc2cc(O)cc(O)c12`, the TGI in the test on A498 renal, in the test with HCT-116 colon, with HL-60(TB) leukemia, with HOP-62 NSCLC, with HOP-92 NSCLC and in the test with HT29 colon was more than 25 µM throughout. The TGI in the test on NCI-H23 lung, with SK-MEL-2 melanoma, in the test on SK-MEL-28 melanoma, in the test on SK-OV-3 ovarian, in the test on SNB-75 CNS and in the test with U251 CNS was more than 25 µM in each case. The TGI in the test with UACC-62 melanoma and in the test with UO-31 renal was more than 25 µM throughout.
